From patent US7141541B1, “Use of peptides” (University Court of the University of Dundee, priority 1999, dated 2006)
Where a SMILES comes first, the peptide text is derived from it. Where no end group is shown, it is not given here. The star is where a group is joined. Biotin = O=C1N[C@H]2[C@H](CS[C@H]2CCCCC(=O)*)N1; Cbz = O=C(OCc1ccccc1)*; CH2F = FC*

Assays:
MRC5 cells [1] = assay: peptide-induced cell death (apoptosis) in MRC5 cells; format: cell-based; settings: for biological effect (apoptosis): MRC5 cells / cultured mammalian cells
Excerpt: FIG. 8 is a table illustrating the induction of apoptosis by eIF4G peptides in MRC5 cells;
FIG. 9 is a summary of the results of inhibition of eIF4G(413-424)-induced apoptosis;

MRC5 cells [2] = assay: cell survival by MTT assay; format: cell-based; settings: for cell death / cell viability: various concentrations, 72 h serum-starved MRC5 cells, FIGS. 13b,c,d
Procedure: FIGS. 13a–d are graphs showing cell survival (% of control, untreated cells) as measured by MTT assay. a) Lane 1: 10 μM BP2 peptide added to serum-fed cells or Lane 2, 3, 4: 10 μM BP2 peptide added to 24 h, 48 h or 72 h serum-starved cells respectively. Lane 5: 10 μM BP2 YLL-AAA added to 72 h serum starved cells. Lane 6: 72 h serum starved cells incubated in 10% serum for 1 h prior to addition to 10 μM BP2 peptide. Lane 7: 72 h serum starved cells incubated with 100 μg/ml cycloheximide followed by a 1 h incubation with 10% serum prior to the addition of 10 μM BP2 peptide. In all cases the cells were then further incubated for 1 h in 0.1 mg/ml MTT. Cells were lysed in DMSO and absorbance was measured at […]. b–d) Varying concentrations of peptides were added to 72 h serum starved MRC5 cells. After 30 min incubation the cells were then further incubated for 1 h in 0.1 mg/ml MTT. Cells were lysed in DMSO and absorbance was measured at 570 nm.

recombinant human eIF4E [3] = target: recombinant human eIF4E (Homo sapiens, UniProt P06730); assay: in vitro binding (pull-down) assay with eIF4E; settings: for interaction with human eIF4E: FIG. 12b(i), 1 μg recombinant eIF4E, 0.2 mM biotinylated peptide, 1 h at 4° C.
Chain of recombinant human eIF4E (Homo sapiens, UniProt P06730) (P06730 whole entry): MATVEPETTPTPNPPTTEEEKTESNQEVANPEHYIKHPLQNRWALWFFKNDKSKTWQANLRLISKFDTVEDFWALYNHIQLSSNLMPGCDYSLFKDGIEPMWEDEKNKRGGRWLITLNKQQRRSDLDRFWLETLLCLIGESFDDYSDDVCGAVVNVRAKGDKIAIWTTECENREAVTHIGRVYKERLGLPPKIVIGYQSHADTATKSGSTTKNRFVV
Procedure: (§1) Sequences of biotinylated, penetratin-linked peptides. U=Norvaline, a substitution for cysteine. Conserved residues that are important in binding to eIF4E are underlined. b). In vitro binding assay. i) 1 μg recombinant eIF4E was incubated with 0.2 mM biotinylated peptides in a total volume of 50 μl wash buffer (1×PBS/250 mM Kcl) for 1 h at 4° C. ii) 0.2 mM Hu4G or Hu4G YLL-AAA was incubated with 200 μg MRC5 cell lysate for 1 h at 4° C. in a total volume of 50 μl wash buffer. In all cases the biotinylated peptides and associated proteins were pulled down using streptavidin agarose. The proteins were separated by SDS PAGE and subjected to Western blotting using anti-eIF4E antibody. Detection was by ECL;
In order to study directly the role of eIF4E in cell transformation, a series of biotinylated synthetic peptides (Peptides synthesised by Cyclacel) corresponding to the eIF4E interacting domain (binding motif) of human eIF4G, and wheat eIF4G and alanine substituted peptides thereof were synthesised (see FIG. 12a) and tested for their capacity to interact with ^35S-Met labelled in vitro translated human eIF4E (NB. Peptides BP1 and BP1 YLM-AAA were not biotinylated). Peptides were coupled to streptavidin coated agarose beads by a N-terminus linked biotin group and washed in PBS/0.2% Tween 3× before being incubated for 1 hour at +4° C. with in vitro translated human eIF4E. Beads were washed as above and boiled for 5 min. in SDS loading buffer before the peptide bound proteins were separated on a 10% SDS gel. The bands were visualised by autoradiography.

serum deprived cells = assay: protection from peptide-induced cell death by serum / MAP kinase activation (FIG. 15); format: cell-based
Procedure: FIG. 15 illustrates that the acute activation of MAP kinase protects cells from 4E-binding peptide induced cell death; and
In the presence of 10% ECS, cells were resistant to treatment with 20 μm of the peptides. Cells only died if they were serum deprived for 72 hours (more than 85%) within 15 minutes after the peptide had been applied (see FIG. 15). However, if serum deprived cells (72 h) were pre-treated with 10% FCS or with 20 nM PMA (phorbol ester) for 15 minutes before the peptides were added, the cells survived the subsequent peptide treatment (60–70%).
Furthermore, if the serum deprived cells were instead pre-treated with the MAPK inhibitor PD098059 for 1 hour before 10% FCS was added, approximately 80–90% of the cells died.

[4] = system: cap-independent translation initiation; assay: in vitro translation assay, cap-independent; format: biochemical
[5] = system: cap-dependent translation initiation; assay: in vitro translation assay, cap-dependent; format: biochemical
MRC5 cells [6] = assay: TUNEL analysis; format: cell-based; settings: 10 μM peptide
Procedure: (§2) MRC5 cells were incubated with 10 μM Hu4G peptide for 10 min. Cells visualised with fluorescein by fluorescence microscopy. […] 80% of cells incubated with the 10 μM Hu4G peptide fluoresced positive. d) Images of DAPI-stained MRC5 cells incubated with either 20 μM Hu4G or Hu4G YLL-AAA peptide for 40 min. Arrows indicate the position of a cell with either a condensed nucleus (top right) or a nucleus with a punctate appearance (bottom left). e) Visualisation of effects on the MPT. Serum-starved MRC5 cells were loaded with 0.1 μM JCl for 30 min prior to addition of 10 μM peptide. Changes in mitochondrial permeability were viewed by laser scanning confocal microscopy (krypton/argon laser) using identical setting. Green channel: excitation 488 nm/emission 522 nm. Red channel: excitation 568 nm/emission 585 nm. Channels were collected separately to avoid cross over. Images were taken 5 min after addition of the peptide;

MRC5 cells [7] = assay: mitochondrial permeability transition (JC1 dye, confocal microscopy); format: cell-based; settings: 10 μM peptide, serum-starved MRC5 cells
Procedure: as §2
An early event considered decisive in apoptosis is the opening of the mitochondrial permeability transition (MPT) pore (20–22). To characterise further the eIF4E-binding peptide-induced cell death, the development of the MPT was investigated in living MRC5 cells loaded with the fluorescent dye, JC1 (21).

[8] = target: T1, eIF4E in MRC5 cell lysate (Homo sapiens, UniProt P06730); assay: pull-down of eIF4E from MRC5 cell lysate; format: binding; settings: 0.2 mM peptide, 200 μg MRC5 cell lysate, 1 h at 4° C.
T1 construct: endogenous in cells; host or cells: MRC5
T1 sequence (P06730 whole entry): as above
Procedure: as §1

[9] = system: HaCaT, Swiss 3T3, RATI and IIeLa cells; assay: cell survival in other cell-types; format: cell-based; settings: results not shown
MRC5 cells [10] = assay: [35S]methionine incorporation into protein; format: cell-based; settings: serum deprived cells, 30 minutes
Procedure: (§3) FIG. 16 illustrates that eIF4E binding peptide cell death is not through eIF4E's known role in mRNA translation. a) 72 h serum-starved MRC5 cells were treated with 100 μg/ml and 10 μg/ml cylcoheximide, 1 μg/ml and 0.1 μg/ml pactamycine or 10 μM Hu4G peptide for 2 h prior to a MTT assay. Cells were pulsed labelled with [^35S]methionine for 30 min after addition of the inhibitors/peptide. The incorporation of [^35S]methionine into protein was determined following hot trichloroacetic acid precipitation. b) 72 h serum-starved MRC5 cells were treated with 100 μg/ml cycloheximide (Chx), 1 μg/ml pactamycine (Pact) or c) MRC5 cells which had been starved of serum for 72 h were pre-incubated with 100 μg/ml cycloheximide or 1 μg/ml pactamycine for 30 min prior to addition of 10 μM Hu4G peptide. Cells were then further incubated for 1.5 h prior to a MTT assay. Results from three independent experiments (+/− SEM).
Serum deprived cells were treated with the general translation inhibitors Cyclohexamide or Pactamycin at indicated concentrations or the H4G peptide in the presence of 35S-Met for 30 minutes (see FIGS. 16a,b). Cells were lysed and the amount of translation was estimated by counting incorporated 35S-Met in precipitated protein fractions.

MRC5 cells [11] = assay: MTT assay with general translation inhibitors (FIG. 16); format: cell-based; settings: for protection against the effect of the Hu4G peptide: pre-incubation 30 min prior to 10 μM Hu4G peptide; for cell killing: serum deprived cells
Procedure: as §3

recombinant human eIF4E [12] = target: T2, recombinant human eIF4E (human, UniProt P06730 1-217, limits assumed); assay: in vitro pull-down of recombinant human eIF4E (FIG. 5)
T2 construct: also called in vitro translated human eIF4E; eukaryotic initiation factor 4E
T2 sequence (P06730 whole entry): as above

recombinant human eIF4E [13] = target: T2, recombinant human eIF4E; assay: streptavidin agarose pull-down with biotinylated peptide
Procedure: as §1, with “FIG. 12 illustrates that eIF4E-binding peptides leads to rapid, dose-dependent, cell death. a). Sequences” for “Sequences”, “µg” for “μg”, “µl” for “μl”

COC(=O)C[C@H](NC(=O)[C@H](C)NC(=O)[C@@H](NC(=O)OCc1ccccc1)C(C)C)C(=O)CF [ZVAD.fmk, reference compound] (Cbz-Val-Ala-Asp(OMe)-CH2F)
effect of pre-treatment on peptide-induced cell death (MRC5 cells [1]; MRC5 cells, results not shown): did not affect peptide-induced cell death

Hu4G Y-A: singly alanine-substituted, penetratin-linked human eIF4G peptide (KKRADREFLLGFRQIKIWFQNRRMKWKK)
cell death / cell viability (MRC5 cells [2]): reduced capacity to induce cell death | biological effect (apoptosis) (MRC5 cells [1]; FIG. 8): intermediate biological effect | interaction with human eIF4E (recombinant human eIF4E [3]): lower binding affinity

CCCCCCCCCCCCCC(=O)O[C@@H]1[C@@H](C)[C@@]2(O)[C@@H](C=C(CO)C[C@]3(O)C(=O)C(C)=C[C@@H]23)[C@@H]2C(C)(C)[C@]12OC(C)=O [PMA]
cells survived the subsequent peptide treatment (serum deprived cells; serum deprived cells (72 h) pre-treated with 20 nM for 15 minutes): 60–70%

RVRYSRDQLLDL (listed as Triticum aestivum) [wheat eIF4G(62-73)]
inhibition of cap-independent translation initiation in vitro [4]: not cap-independent translation initiation | binding to recombinant human eIF4E in vitro (recombinant human eIF4E [3]; FIG. 4, FIG. 5): bound to and pulled down more recombinant human eIF4F in vitro than human eIF4G(569-580) did | inhibition of cap-dependent translation initiation in vitro [5]: found to inhibit cap-dependent translation initiation

Hu4G YLL-AAA: triple alanine substituted, penetratin-linked human eIF4G peptide, unable to bind eIF4E (KKRADREFAAGFRQIKIWFQNRRMKWKK)
TUNEL signal (MRC5 cells [6]): No signal was observed | changes in JC1 fluorescence (MPT pore opening) (MRC5 cells [7]): No changes in florescence were observed | biological effect (apoptosis) (MRC5 cells [1]; FIG. 8): did not cause the observed biological effect (apoptosis) | interaction with human eIF4E (recombinant human eIF4E [3]): did not interact with eIF4E | binding of eIF4E in cell lysates [8]: did not | cell survival [9]: no effect on cell survival

COc1cccc(-c2cc(=O)c3ccccc3o2)c1N [PD098059, reference compound]
effect on serum induced resistance to the peptides (MRC5 cells [1]; pre-treatment with the MEK inhibitor): serum induced resistance could be inhibited | cells died (serum deprived cells; serum deprived cells pre-treated for 1 hour before 10% FCS was added): 80–90%

C[C@@H]1C[C@@H]([C@H](O)CC2CC(=O)NC(=O)C2)C(=O)[C@@H](C)C1 [cycloheximide]
incorporation of 35S-Met (translation) (MRC5 cells [10]): block translation | protection against the effect of the Hu4G peptide (MRC5 cells [11]): did not result in any protection | cell killing (MRC5 cells [11]): do not kill the cells | effect on protective effect of serum (MRC5 cells [2]; pre-incubation with 100 μg/ml, then 10% serum 1 h, then 10 μM BP2 peptide): could not be inhibited

W4G: biotinylated, penetratin-linked peptide of the eIF4E binding motif of wheat eIF4G (Biotin-RVRYSRDQLLDLRQIKIWFQNRRMKWKK)
cell death / cell viability (MRC5 cells [2]): rapid, dose-dependent, cell death | effect of limited serum treatment on sensitivity to the peptide (MRC5 cells [1]; FIG. 9): Resistance | cell death (possibly by apoptosis) (MRC5 cells [1]; serum starved cell lines, FIG. 8): caused rapid cell death

CC(=O)c1cccc(N[C@H]2[C@H](N)[C@@](NC(=O)N(C)C)([C@H](C)O)[C@@](C)(O)[C@@]2(O)COC(=O)c2c(C)cccc2O)c1 [pactamycin]
incorporation of 35S-Met (translation) (MRC5 cells [10]): block translation | protection against the effect of the Hu4G peptide (MRC5 cells [11]): did not result in any protection | cell killing (MRC5 cells [11]): do not kill the cells

KKRYDREFLLGF (also called human eIF4G413-424) [human eIF4G(569-580)]
binding result (recombinant human eIF4E [12]): binds

B1: Human eIF4G(569-580)Y416AL421AL422A-Penetratin (peptide)
peptide: KKRADREFAAGFRQIKIWFQNRRMKWKK
modifications: not fully specified (N-terminus)
notes: Order of pieces from the printed name; also called Hu4G YLL-AAA; triple alanine human eIF4G peptide
binding result (recombinant human eIF4E [13]): no binding (tested: 0.2 mM peptide (FIG. 12b legend))

RVRYSRDQLLDL [wheat eIF4G(62-73)]
binding result (recombinant human eIF4E [12]): binds
